Experimental data as given in patent publication US4740504A, “Antihyperlipidemic amine boranes” (United States Borax & Chemical Corp., priority 1987, dated 1988).

Experiments:
[1] = molecular target: T1, ATP dependent citrate lyase (Mus musculus, UniProt Q91V92); test: Enzymatic studies in vitro: ATP dependent citrate lyase; type: biochemical; conditions: at all concentrations tested
T1 construct: from tissue
T1 sequence (Q91V92 1-1091): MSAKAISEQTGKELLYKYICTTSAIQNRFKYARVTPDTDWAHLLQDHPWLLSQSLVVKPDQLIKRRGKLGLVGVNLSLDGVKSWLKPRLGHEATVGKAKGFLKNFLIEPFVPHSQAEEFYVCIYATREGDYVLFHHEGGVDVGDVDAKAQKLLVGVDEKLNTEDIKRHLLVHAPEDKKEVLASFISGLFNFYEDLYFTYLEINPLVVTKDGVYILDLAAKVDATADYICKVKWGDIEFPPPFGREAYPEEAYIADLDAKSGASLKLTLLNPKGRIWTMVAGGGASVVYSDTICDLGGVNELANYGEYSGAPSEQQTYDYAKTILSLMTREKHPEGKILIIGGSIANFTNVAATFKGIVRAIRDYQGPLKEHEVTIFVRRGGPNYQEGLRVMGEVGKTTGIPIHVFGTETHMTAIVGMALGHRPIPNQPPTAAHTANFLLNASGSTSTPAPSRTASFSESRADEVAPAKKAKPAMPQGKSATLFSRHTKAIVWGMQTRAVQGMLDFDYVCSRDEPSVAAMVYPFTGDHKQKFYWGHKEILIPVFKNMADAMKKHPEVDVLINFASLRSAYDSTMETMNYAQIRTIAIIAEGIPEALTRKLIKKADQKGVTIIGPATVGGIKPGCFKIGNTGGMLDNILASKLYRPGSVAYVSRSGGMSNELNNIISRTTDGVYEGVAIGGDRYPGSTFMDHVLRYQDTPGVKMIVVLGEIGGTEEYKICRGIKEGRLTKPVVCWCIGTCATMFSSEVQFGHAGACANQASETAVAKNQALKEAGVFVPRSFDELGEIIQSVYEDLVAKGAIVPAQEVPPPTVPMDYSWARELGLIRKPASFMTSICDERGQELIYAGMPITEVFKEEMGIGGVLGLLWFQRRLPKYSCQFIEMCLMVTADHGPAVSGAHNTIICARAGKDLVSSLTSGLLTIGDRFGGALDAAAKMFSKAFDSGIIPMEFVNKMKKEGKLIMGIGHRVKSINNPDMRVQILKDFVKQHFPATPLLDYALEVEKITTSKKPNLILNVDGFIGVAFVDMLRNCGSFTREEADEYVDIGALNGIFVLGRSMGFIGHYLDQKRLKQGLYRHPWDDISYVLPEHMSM

HMG CoA reductase [2] = test: Enzymatic studies in vitro: cholesterol synthesis (HMG CoA reductase); type: biochemical; conditions: 200 μM
[3] = tested on: phosphatidate phosphohydrolase; test: Enzyme activity after in vivo dosing: phosphatidate phosphohydrolase; conditions: 16 mg/kg/day
Toxicity (LD50) = conditions: in vivo
fatty acid synthetase = molecular target: T2, fatty acid synthetase (Mus musculus, UniProt P19096); test: Enzymatic studies in vitro: fatty acid synthetase; type: biochemical
T2 construct: from tissue
T2 sequence (P19096 whole entry): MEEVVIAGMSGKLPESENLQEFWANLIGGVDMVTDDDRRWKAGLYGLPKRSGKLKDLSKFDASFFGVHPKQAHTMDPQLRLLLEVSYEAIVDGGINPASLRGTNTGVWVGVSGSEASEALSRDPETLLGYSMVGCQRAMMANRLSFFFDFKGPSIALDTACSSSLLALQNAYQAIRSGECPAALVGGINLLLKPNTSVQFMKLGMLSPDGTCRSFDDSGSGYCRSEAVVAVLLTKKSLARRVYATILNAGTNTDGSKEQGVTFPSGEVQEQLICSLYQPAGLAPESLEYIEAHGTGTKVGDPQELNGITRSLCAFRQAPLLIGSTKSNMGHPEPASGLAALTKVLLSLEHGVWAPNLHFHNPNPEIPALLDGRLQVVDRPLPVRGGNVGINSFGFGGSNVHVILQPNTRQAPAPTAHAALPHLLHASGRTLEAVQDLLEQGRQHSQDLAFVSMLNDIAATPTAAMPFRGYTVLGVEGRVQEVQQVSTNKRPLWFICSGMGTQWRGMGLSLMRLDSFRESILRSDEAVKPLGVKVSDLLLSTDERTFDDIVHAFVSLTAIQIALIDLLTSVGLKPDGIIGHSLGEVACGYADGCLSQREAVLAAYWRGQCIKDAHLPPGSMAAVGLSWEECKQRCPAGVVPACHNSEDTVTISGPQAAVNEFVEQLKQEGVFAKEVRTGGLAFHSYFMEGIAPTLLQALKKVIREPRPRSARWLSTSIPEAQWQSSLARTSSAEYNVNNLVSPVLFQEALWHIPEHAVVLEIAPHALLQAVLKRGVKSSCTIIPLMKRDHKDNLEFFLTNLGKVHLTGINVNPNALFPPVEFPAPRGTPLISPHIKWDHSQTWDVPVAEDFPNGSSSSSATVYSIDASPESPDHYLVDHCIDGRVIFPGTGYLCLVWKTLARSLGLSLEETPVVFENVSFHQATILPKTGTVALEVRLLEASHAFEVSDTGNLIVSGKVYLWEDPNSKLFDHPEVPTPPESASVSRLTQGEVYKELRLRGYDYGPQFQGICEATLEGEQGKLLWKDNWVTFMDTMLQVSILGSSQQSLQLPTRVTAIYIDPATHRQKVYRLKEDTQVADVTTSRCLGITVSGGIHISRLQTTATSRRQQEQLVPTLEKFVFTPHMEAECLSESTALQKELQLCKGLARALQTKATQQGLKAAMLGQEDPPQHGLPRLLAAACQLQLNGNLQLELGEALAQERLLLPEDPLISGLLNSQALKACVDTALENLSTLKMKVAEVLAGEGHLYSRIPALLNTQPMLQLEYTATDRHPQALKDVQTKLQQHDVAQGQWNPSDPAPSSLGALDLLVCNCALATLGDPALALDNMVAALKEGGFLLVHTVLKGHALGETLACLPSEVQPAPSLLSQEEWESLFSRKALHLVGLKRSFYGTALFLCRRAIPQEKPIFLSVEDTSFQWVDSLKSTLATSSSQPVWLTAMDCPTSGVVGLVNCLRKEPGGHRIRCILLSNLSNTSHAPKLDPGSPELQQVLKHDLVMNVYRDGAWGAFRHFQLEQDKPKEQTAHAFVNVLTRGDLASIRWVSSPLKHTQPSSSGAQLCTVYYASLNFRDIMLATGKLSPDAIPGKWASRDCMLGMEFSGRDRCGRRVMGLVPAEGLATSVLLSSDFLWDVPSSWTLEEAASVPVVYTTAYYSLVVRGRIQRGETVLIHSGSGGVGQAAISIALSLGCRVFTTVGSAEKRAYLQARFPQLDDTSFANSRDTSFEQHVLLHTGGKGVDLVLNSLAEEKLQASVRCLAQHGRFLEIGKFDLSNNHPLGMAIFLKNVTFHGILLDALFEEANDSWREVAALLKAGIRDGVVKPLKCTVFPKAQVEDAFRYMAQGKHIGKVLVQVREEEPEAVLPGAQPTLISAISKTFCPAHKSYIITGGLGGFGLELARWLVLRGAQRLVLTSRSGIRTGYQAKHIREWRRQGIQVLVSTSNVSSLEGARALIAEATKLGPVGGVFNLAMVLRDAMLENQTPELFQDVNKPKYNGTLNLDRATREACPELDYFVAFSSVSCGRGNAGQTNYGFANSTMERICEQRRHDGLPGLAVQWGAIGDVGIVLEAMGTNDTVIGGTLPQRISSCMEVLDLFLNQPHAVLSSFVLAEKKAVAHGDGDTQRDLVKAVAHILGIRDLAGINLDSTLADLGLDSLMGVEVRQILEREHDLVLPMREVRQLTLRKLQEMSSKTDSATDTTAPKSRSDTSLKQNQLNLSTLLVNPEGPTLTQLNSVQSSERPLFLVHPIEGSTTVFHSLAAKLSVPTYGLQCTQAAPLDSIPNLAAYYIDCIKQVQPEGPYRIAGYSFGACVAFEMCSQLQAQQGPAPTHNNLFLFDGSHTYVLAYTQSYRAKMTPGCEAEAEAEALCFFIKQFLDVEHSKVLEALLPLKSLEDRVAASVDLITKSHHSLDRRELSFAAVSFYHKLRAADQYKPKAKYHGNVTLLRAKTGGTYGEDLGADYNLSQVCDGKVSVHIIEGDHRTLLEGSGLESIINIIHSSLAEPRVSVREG

acetyl CoA synthetase = molecular target: T3, acetyl CoA synthetase (Mus musculus, UniProt Q9QXG4); test: Enzyme activity after in vivo dosing: acetyl CoA synthetase; conditions: 16 mg/kg/day
T3 construct: from tissue
T3 sequence (Q9QXG4 whole entry): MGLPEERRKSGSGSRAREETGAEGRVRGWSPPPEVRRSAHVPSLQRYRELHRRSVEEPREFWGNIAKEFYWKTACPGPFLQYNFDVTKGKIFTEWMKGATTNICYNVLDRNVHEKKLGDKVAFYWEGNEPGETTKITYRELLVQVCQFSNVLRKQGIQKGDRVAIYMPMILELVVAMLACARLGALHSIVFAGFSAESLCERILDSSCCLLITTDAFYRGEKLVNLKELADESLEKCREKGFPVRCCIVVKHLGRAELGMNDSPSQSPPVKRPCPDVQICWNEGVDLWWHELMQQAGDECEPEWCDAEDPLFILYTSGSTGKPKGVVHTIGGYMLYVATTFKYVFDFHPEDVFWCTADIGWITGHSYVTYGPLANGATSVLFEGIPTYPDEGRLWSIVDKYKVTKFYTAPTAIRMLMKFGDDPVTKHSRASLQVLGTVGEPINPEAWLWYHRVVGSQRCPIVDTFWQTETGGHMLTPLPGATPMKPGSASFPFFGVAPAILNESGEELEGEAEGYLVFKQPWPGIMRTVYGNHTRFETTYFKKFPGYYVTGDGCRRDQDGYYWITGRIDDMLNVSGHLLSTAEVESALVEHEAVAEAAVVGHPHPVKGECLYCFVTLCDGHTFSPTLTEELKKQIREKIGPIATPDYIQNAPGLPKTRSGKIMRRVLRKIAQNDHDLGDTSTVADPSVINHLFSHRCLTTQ

male CF1 mice = test: Hypolipidemic activity in CF1 mice, intraperitoneal dosing (serum cholesterol and triglyceride); type: in vivo; conditions: Table III, 4 mg/kg/day i.p., N = 6
[4] = molecular target: T4, acyl CoA cholesterol acyl transferase (Mus musculus, UniProt O88908); test: Enzymatic studies in vitro: acyl CoA cholesterol acyl transferase; type: biochemical; conditions: read-out: reduction of acyl CoA cholesterol acyl transferase activity
T4 construct: from tissue
T4 sequence (O88908 1-525): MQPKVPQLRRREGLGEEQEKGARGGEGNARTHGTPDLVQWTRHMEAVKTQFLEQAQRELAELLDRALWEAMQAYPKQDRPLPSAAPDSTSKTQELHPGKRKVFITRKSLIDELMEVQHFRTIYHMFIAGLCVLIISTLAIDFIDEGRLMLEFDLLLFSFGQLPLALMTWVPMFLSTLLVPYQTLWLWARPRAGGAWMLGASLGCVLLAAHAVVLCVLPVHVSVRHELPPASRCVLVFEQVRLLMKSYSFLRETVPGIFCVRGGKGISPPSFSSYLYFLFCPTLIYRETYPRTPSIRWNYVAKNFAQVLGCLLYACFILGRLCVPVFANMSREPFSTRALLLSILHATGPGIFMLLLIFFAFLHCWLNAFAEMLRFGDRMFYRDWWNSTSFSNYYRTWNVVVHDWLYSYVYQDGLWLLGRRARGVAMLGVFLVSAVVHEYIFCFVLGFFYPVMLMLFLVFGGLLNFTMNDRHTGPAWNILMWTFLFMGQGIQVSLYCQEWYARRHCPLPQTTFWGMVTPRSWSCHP

[5] = tested on: liver mitochondrial citrate exchange; test: Enzymatic studies in vitro: liver mitochondrial citrate exchange; type: biochemical; conditions: at all concentrations tested
Actyl CoA carboxylase = test: Enzymatic studies in vitro: acetyl CoA carboxylase; type: biochemical
HMG CoA reductase [6] = molecular target: T5, HMG CoA reductase (Mus musculus, UniProt Q01237); test: Enzyme activity after in vivo dosing: HMG CoA reductase; conditions: maximal reduction at 4 mg/kg/day
T5 construct: from tissue
T5 sequence (Q01237 1-887): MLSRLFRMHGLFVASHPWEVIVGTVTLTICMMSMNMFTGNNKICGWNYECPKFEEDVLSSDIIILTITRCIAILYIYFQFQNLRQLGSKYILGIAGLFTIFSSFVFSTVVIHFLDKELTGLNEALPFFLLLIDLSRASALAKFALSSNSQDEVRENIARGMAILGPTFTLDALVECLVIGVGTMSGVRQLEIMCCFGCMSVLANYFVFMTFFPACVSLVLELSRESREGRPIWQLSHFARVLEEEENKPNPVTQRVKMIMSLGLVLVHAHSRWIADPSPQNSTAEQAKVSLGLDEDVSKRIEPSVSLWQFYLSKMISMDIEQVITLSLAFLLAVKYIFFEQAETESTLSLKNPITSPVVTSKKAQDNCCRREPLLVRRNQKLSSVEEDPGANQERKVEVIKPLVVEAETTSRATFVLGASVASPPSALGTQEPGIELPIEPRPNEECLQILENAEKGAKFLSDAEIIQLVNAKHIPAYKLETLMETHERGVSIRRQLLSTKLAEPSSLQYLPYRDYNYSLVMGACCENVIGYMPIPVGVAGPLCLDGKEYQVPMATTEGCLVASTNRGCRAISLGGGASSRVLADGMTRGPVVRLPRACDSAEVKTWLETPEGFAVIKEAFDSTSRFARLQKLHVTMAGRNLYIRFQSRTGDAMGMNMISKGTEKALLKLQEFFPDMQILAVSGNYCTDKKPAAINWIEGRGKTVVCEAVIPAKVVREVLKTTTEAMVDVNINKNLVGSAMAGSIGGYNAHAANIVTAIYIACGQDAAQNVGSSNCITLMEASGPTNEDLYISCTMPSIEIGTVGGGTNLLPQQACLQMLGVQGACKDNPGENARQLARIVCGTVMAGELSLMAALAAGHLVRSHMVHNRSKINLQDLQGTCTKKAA

[BH3-][N+](C)(C)CCCCCCCCCCCCCCCCCC [I, N-n-Octadecyl-N,N-Dimethylamine Borane]
reduction of ATP dependent citrate lyase activity [1]: more than 50% | reduction of cholesterol synthesis (HMG CoA reductase) (HMG CoA reductase [2]): 38% | reduction of phosphatidate phosphohydrolase activity [3]: 40% | LD50 (Toxicity (LD50)): > 500 mg/kg | effect on fatty acid synthetase activity (fatty acid synthetase): unaffected | reduction of acetyl CoA synthetase (acetyl CoA synthetase): 32% | Serum Triglyceride Day 9 (X ± SD) (male CF1 mice): 80 ± 9% of Control | inhibition at 100 µM ([4]; 100 μM): 41% | inhibition at 200 µM ([4]; 200 μM): 55% | reduction of liver mitochondrial citrate exchange [5]: more than 50% | effect on Actyl CoA carboxylase activity (Actyl CoA carboxylase): unaffected | reduction of HMG CoA reductase activity (HMG CoA reductase [6]): 34%
